Test results taken from US20250353812A1, “2,6-DIBENZYLIDENECYCLOHEXANONE OXIME COMPOUND AND PREPARATION METHOD THEREFOR AND USE THEREOF” (WENZHOU MEDICAL UNIVERSITY, priority 2022, published 2025).

Columns and labels:
IL-6 = experiment: Inhibition of IL-6 release from J774A.1 macrophages stimulated by LPS (ELISA); format: cell-based; conditions: 10 μM compound pretreatment 2 h, then 0.5 μg/mL LPS 22 h, LPS control = 100, FIG. 1
Description: (§1) The present invention tested the dose-effect relationship of some of the compounds of Examples in inhibiting the release of IL-6 and TNF-α from J774A.1 macrophages stimulated by LPS. The specific method is as follows: 1.2×10^6 […] macrophages were cultured by DMEM culture solution at 37° C., the culture solution was renewed after 24 h, the tested example compound (at a final concentration of 10 μM) was added for pretreatment for 2 h and then continuously treated by 0.5 μg/mL of LPS for 22 h, the culture solution was collected, and the content of IL-6 and TNF-α was detected by ELISA method. The total protein concentration was measured by collecting cells, the ELISA results were divided by the corresponding total protein concentration and calibrated by the IL-6 and TNF-α content of LPS control group as 100, and the average and error values were calculated.

TNF-α = experiment: Inhibition of TNF-α release from J774A.1 macrophages stimulated by LPS (ELISA); format: cell-based; conditions: 10 μM compound pretreatment 2 h, then 0.5 μg/mL LPS 22 h, LPS control = 100, FIG. 2
Description: as §1

[1] = system: liver inflammation in obese mice; experiment: Protective effect on liver inflammation in obese mice (high-fat diet); format: in vivo; conditions: HFD mice, Example 9 12 mg/kg, intragastric gavage every two days for 8 weeks
Description: (§2) A suspension of 0.5% sodium carboxymethylcellulose and the compounds of Examples was prepared for intragastric administration. The blank control group and the high-fat diet obesity model group were administrated with equal doses of solvent (0.5% CMC-Na solution) intragastrically. The mice were first adaptively raised for 1 week, and when the mice were 8 weeks old, they were randomly divided into 2 groups (A: Con, B: HFD). Group A was fed with normal mouse feed, and mice in group B were fed with 60% high-fat feed for 16 weeks. After the model was successfully established at 12 weeks, the mice in group B were randomly divided into three groups (i: HFD, ii: HFD+Example 9, 12 mg/kg, iii: HFD+Example 2, 10 mg/kg). The body weight of the mice was measured and recorded every week, and groups ii and iii were treated with the compounds of Examples by intragastric gavage every two days for 8 weeks. After 24 weeks, the mice were anesthetized and sacrificed, and blood samples were collected and centrifuged to collect serum for various serum biochemical tests; the liver was removed, and the liver tissue was cut and embedded (frozen and paraffin) for immunohistochemistry and other analyses. The remaining liver tissues were snap frozen in liquid nitrogen and stored in a −80° C. freezer.
Taking the compounds of Examples 2 and 9 as examples, the experimental results are shown in FIGS. 3A-3D and FIGS. 4A-4E, where 2 and 9 represent the compounds of Example 2 and Example 9, respectively. Inflammation was assessed by examining macrophage infiltration in the liver using the macrophage-specific marker F4/80 staining. […] In addition, the expression of TNF-α, IL-6 and IL-1β genes in liver tissue was detected.

[2] = system: liver lipid metabolism of obese mice; experiment: Protective effect on liver lipid metabolism of obese mice (high-fat diet); format: in vivo; conditions: HFD mice; Example 9 12 mg/kg, Example 2 10 mg/kg, intragastric gavage every two days for 8 weeks
Description: as §2
The liver lipid metabolism of obese mice is taken as an example. […] It can be clearly seen from the above test results that the compound having the structure of formula I of the present invention has a protective effect on the liver lipid metabolism of obese mice.

ON=C1/C(=C/c2ccccc2C(F)(F)F)CCC/C1=C\c1ccccc1C(F)(F)F [Example 9, 2,6-(E,E)-(2-(trifluoromethyl)benzylidene)cyclohexanone oxime]
inhibitory effect on the release of IL-6 (IL-6): significant inhibitory effect
inhibitory effect on the release of TNF-α (TNF-α): significant inhibitory effect
macrophage infiltration in the liver (F4/80 staining) ([1]; Example 2 10 mg/kg): decreased
upregulation of IL-1β gene in mouse liver tissue (mRNA) ([1]; Example 2 10 mg/kg): significantly alleviated
upregulation of IL-6 gene in mouse liver tissue (mRNA) ([1]; Example 2 10 mg/kg): significantly alleviated
upregulation of TNF-α gene in mouse liver tissue (mRNA) ([1]; Example 2 10 mg/kg): significantly alleviated
degradation of IκB-α in the liver caused by high-fat diet feeding (Western blot) [1]: significantly inhibit
dyslipidemia caused by high-fat diet feeding (serum triglycerides, low-density lipoprotein cholesterol, total cholesterol) [2]: significantly alleviated
lipid accumulation in the liver (H&E staining) [2]: significantly alleviated
lipid accumulation in the liver (oil red staining of frozen sections, quantified) [2]: significantly alleviates
